# Key:
# [1] = system: γD (W42D) aggregates in the SH-SY5Y cell; assay: γD (W42D) aggregates in SH-SY5Y cells, live imaging and CellProfiler analysis; format: cell-based; settings: 20 uM, added every 4 hours for a total of 24 hours
# Experimental: Cells were grown in a 12-well plate (1×10^5 cells per well) for 24 hours and transfected with γD (W42D) plasmid using EZtrans transfection reagent. 24 hours after transfection, Champ peptides RJK001 (final concentration of 20 uM) and RJK0012 (final concentration of 10 uM and 20 uM) were added into SH-SY5Y cell culture medium every 4 hours for a total of 24 hours. The effect of RJK001 and RJK012 polypeptide on the γD (W42D) aggregates in the SH-SY5Y cell mode were analyzed using a custom CellProfiler software. Briefly, cell bodies were then segmented and identified by the GFP fluorescence channel images and tracing outward to the limits of the cytoplasmic (using a diameter cutoff of 100-300 pixels). The cell bodies were used as masks to eliminate imaging artifacts outside of cell boundaries, such as background fluorescence or dead cells. After masking, punctate structures were enhanced by image processing for speckle-like features that were 10 pixels in diameter for SH-SY5Y cells and these punctate structures were then annotated as features such as γD (W42D) puncta. Finally, the total image area which was enclosed in each of the identified features (number of cell and punctate) was calculated and output to spreadsheets. At least 200 cells per sample were analyzed. […]
# Granules screen and assay images were segmented and image features quantified using a custom CellProfiler and ImageJ software. […] The effect of RJK001 and RJK012 polypeptide on the γD ([…]) aggregates in the SH-SY5Y cell mode were analyzed using a custom CellProfiler software. Briefly, cell bodies were then segmented and identified by the GFP fluorescence channel images and tracing outward to the limits of the cytoplasmic (using a diameter cutoff of 100-300 pixels). The cell bodies were used as masks to eliminate imaging artifacts outside of cell boundaries, such as background fluorescence or dead cells. […] Finally, the total image area which was enclosed in each of the identified features (number of cell and punctate) was calculated and output to spreadsheets. At least 200 cells per sample were analyzed.
# [2] = system: lens of cataract patients; assay: Immersion of intact cataract lens, opacity by daily photographs; design: species or system human; settings: RJK001 0.5 mM in vehicle, 6 days, dark, room temperature
# Experimental: Next, we directly immersed the cataract lens removed during the operation in the buffer solution of the control group and the RJK001 protein solution of the experimental group. During the immersion for up to 6 days, the lens of the patient was photographed and recorded every day. More detailed description of the method is: Collect two intact eye lenses from cataract patients. To each tube was added 400 μL solution of vehicle (0.1% NaN3, 0.3% triton X-100, containing 1:1000 protease inhibitor cocktail) or RJK001 (0.5 mM) in vehicle which covered the lens tissue completely. Lens tissue was incubated in these solutions for 6 days in the dark at room temperature. After sealing the 48-well plate with parafilm to avoid liquid evaporation. Observe the state of the lens under the stereoscope every day and take pictures to record.
# [3] = system: crystallin proteins of the lens from cataract patients; assay: Soluble crystallin in cataract lens grinding fluid by western blot (anti-βB1 crystallin); design: species or system human; settings: 20 ul 2.5 mM RJK001 in 2 ul grinding fluid, RT 10 min
# Experimental: Quantitative analysis was performed using densitometry of crystallin proteins by western blot analysis of the supernatant or insoluble fraction of cell lysates.
# Quantitative analysis was performed using densitometry of crystallin proteins by western blot analysis of the supernatant or insoluble fraction of lens lysates. Collect one intact eye lenses from cataract patients. Put it in 2 ml Eppendorf tube containing 700 ul protein solubilization buffer, Grind the complete lens at 4° C., 30s once for 3 times with Electric grinder to obtain 1 ml grinding fluid, add 20 ul 2.5 mM RJK001 in 2 ul grinding fluid as the experimental group, add 20 ul protein dissolving solution in 2 ul grinding fluid as a control, place it at RT for 10 min, centrifuge at 13000 rpm and take the supernatant for western blotting, After blocking with 5% milk, membrane were incubated with anti-βB1 crystallin (Santacruz, sc-48335, 1:3000) overnight at 4° C., Membrane were incubated with secondary antibodies for 1 h at room temperature, then the blots were detected by the enhanced chemiluminescence.
# C-terminal fusion cell-penetrating peptide RJK001 and N-terminal fusion cell-penetrating peptide RJK012 were purified in vitro and added into SH-SY5Y cell. Cells were harvested at 1 h, 4 h, 8 h and 24 h respectively and were washed with PBS. Total proteins were extracted from SH-SY5Y cells with lysis buffer. […]
sequence,measurement,setting,value
"TEPQEESEEEVEEPEERQQTPEVVPDDSGTFYDQTVSNDLE [RJK001, polypeptide with hydrophilic and hydrophobic segment, expressed in E. coli]",number of γD (W42D) aggregates in the SH-SY5Y cell,[1],reduced the number of γD (W42D) aggregates in the SH-SY5Y cell in a time-dependent manner until 12 hours
same,opacity of the lens,[2],reduced opacity of the lens of cataract patients
same,solubility of crystallin proteins of the lens (supernatant western blot),[3],could improve the solubility of crystallin proteins

# From patent US20250352611A1, “METHODS FOR TREATING CATARACTS USING POLYPEPTIDES” (REJUKON BIOPHARM INC., priority 2022, published 2025)
